Laboratory results reported in paper PMC6396024, “Artemin and an Artemin-Derived Peptide, Artefin, Induce Neuronal Survival, and Differentiation Through Ret and NCAM” (Frontiers in Molecular Neuroscience, 2019).
Bridge positions count the residues as written; N and C are the ends. Ends that are not written are not given here. I, II: the chains in the order shown.

B1: recombinant human Artemin (ARTN) (ligand, UniProt Q5T4W7 108-220, looked up)
chain: AGGPGSRARAAGARGCRLRSQLVPVRALGLGHRSDELVRFRFCSGSCRRARSPHDLSLASLLGAGALRPPPGSRPVSQPCCRPTRYEAVSFMDVNSTWRTVDRLSATACGCLG
notes: Artemin (ARTN), human, UniProt D3DPX9; source: bought: R&D Systems

Key:
[1] = test system: RET; cerebellar granule neurons (CGNs); assay: Neurite outgrowth in CGNs with anti-RET antibody; assay type: cell-based, Wistar rat; settings: for neurite outgrowth without antibody: ARTN 0.042 nM or artefin 0.47 μM, versus control; for neurite outgrowth with anti-RET antibody / neurite outgrowth with control IgG: 1 h before ARTN 0.042 nM or artefin 0.47 μM; for neurite outgrowth with control IgG: control IgG 4.1 μg/ml
Procedure: (§1) Cerebellar granule neurons (CGNs) were prepared from 7-day-old Wistar rat pups (Charles River Laboratories, Sulzfeld, Germany) as previously described ([Schousboe et al., 1989]). Briefly, pups were decapitated, and the cerebellum was removed and cleared from blood vessels and meninges in ice-cold modified Krebs-Ringer buffer. The cerebellum was dissociated by chopping and trypsinization. Cells were washed in Krebs-Ringer buffer containing DNAse I (Sigma, St. Louis, MO, United States) and soybean trypsin inhibitor (Sigma) to stop trypsinization, and the remaining tissue pieces were pelleted by centrifugation. Cells were then washed in Krebs-Ringer buffer containing Ca^2+ and Mg^2+ and re-suspended in appropriate Neurobasal^TM medium (Invitrogen, Taastrup, Denmark) with supplements depending on the experiment.
Cerebellar granule neurons CGNs were re-suspended in Neurobasal^TM medium supplemented with 2% (v/v) B27, 0.5% (v/v) glutamax, 100 U/ml penicillin, 100 μg/ml streptomycin, 0.4% (w/v) BSA, and 20 mM HEPES and were seeded in 8-well LabTek Permanox chamber slides (Nunc) at a density of 1 × 10^4 cells/cm^2. Various concentrations of ARTN, artefin, scrambled artefin, or reversed artefin were added to neurons immediately after seeding. For the RET inhibition assay, the inhibitory goat anti-mouse RET antibody (4.1 μg/ml; R&D systems, Abingdon, United Kingdom) or control goat IgG (4.1 μg/ml; Santa Cruz Biotechnology, Dallas, TX, United States) were added to neurons 1 h before stimulation with ARTN (0.042 nM) […]. For the competition assay between growth factor and mimetic peptide, a combination of ARTN (2.1 nM) and artefin (4.2 μM) was added to the cells immediately after seeding. To inhibit Fibroblast growth factor receptor (FGFR) pharmacologically, inhibitor of FGFR, SU5402 (Sigma), was added to the growth medium in serial dilutions of 20, 40, and 80 μM immediately after plating of CGNs, followed by addition of either P2-d (8 μg/ml), ARTN (0.21 nM), or artefin (1.4 μM) 1 h after the plating.
(§2) To estimate neurite outgrowth, neurons were fixated 24 h after stimulation and stained with rabbit anti-growth-associated-protein-43 (GAP-43) antibody (Chemicon International, Inc., Temecula, CA, United States) or anti-GFP antibody (for transfection experiment) overnight at 4°C followed by incubation with secondary Alexa-conjugated goat anti-rabbit antibodies (Invitrogen, Taastrup, Denmark). In case of experiments with plasmid transfection, the transfection efficiency was ca. 20% of total cells and the neurite outgrowth was evaluated only in GFP-positive, i.e., transfected, cells. For representative pictures, cells were additionally co-stained with Hoechst 33258.
Computer-assisted fluorescent microscopy was performed using a Nikon Diaphot 300 inverted microscope (Nikon) equipped with a Nikon Plan 20× objective and coupled to a video camera (Grundig Electronics, Germany). For each condition in each experiment, including the experiment with transfections, images of approximately 200 cells were recorded in systematic series of fields of view, and neurite outgrowth was quantified using a stereological approach as previously described ([Rønn et al., 2000]).
FIGURE 6 Inhibition of ARTN-induced (A) and artefin-induced (B) neurite outgrowth in CGNs by anti-RET antibody. CGNs were pre-treated directly after plating for 1 h with anti-RET antibody or control IgG in concentrations 4.1 μg/ml before stimulating with ARTN (0.042 nM) or artefin (0.47 μM).

[2] = test system: FGFR; cerebellar granule neurons (CGNs); assay: Neurite outgrowth in CGNs transfected with dominant negative FGFR (dnFGFR); assay type: cell-based, Wistar rat; settings: 24 h, ARTN 0.21 nM or artefin 1.4 μM
Procedure: as §1, with “Cells were then washed in Krebs-Ringer buffer containing Ca^2+ and Mg^2+ and re-suspended in appropriate Neurobasal^TM medium (Invitrogen, Taastrup, Denmark) with supplements depending on the experiment.” left out
as §2, with “For representative pictures, cells were additionally co-stained with Hoechst 33258.” left out

Molecule | neurite outgrowth without antibody [1] | neurite outgrowth with anti-RET antibody ([1]; anti-RET antibody 4.1 μg/ml) | neurite outgrowth with anti-RET antibody versus unstimulated control ([1]; anti-RET antibody 4.1 μg/ml, artefin 0.47 μM, p < 0.01) | neurite outgrowth with control IgG [1] | neurite outgrowth effect in CGNs expressing dnFGFR [2]
I: RSPHDLSLASLLGAGKK-NH2 / II: RSPHDLSLASLLGAGK / III: RSPHDLSLASLLGAG / IV: RSPHDLSLASLLGAG (amide I:16-IV:C, I:17-II:C, II:16-III:C; C-terminus assumed) [artefin] | significantly increased when compared to the control (p < 0.01) | statistically significant reduction of artefin-induced neurite outgrowth (p < 0.01 versus artefin alone) | still significantly different from unstimulated control | did not significantly alter the neuritogenic effect of artefin | abolished in CGNs expressing dnFGFR
B1 | significantly higher level of neurite outgrowth than control cultures | completely abolished the neurite elongation effect of ARTN |  | did not affect the ARTN-induced neurite outgrowth | abolished in CGNs expressing dnFGFR
